Measured values: ChEMBL document CHEMBL3808363, “2-(Thienothiazolylimino)-1,3-thiazolidin-4-ones inhibit cell division cycle 25 A phosphatase” (Bioorg Med Chem, 2016)
pIC50: −log10 of the molar value. Calls of active or inactive are those of the source. No cut-off for these calls is given here.

Legend:
[1] = biological target: T1, M-phase inducer phosphatase 1 (Homo sapiens) (UniProt P30304); experiment: (§1) Inhibition of human recombinant full length GST-tagged CDC25A transfected in Escherichia coli BL21-DE3 using 3-O-methylfluorescein phosphate as substrate at 10 uM incubated for 20 mins followed by substrate addition measured every 10 mins for 2 hrs by fluorimetric assay in presence of 0.05% triton X 100
T1 sequence (whole entry): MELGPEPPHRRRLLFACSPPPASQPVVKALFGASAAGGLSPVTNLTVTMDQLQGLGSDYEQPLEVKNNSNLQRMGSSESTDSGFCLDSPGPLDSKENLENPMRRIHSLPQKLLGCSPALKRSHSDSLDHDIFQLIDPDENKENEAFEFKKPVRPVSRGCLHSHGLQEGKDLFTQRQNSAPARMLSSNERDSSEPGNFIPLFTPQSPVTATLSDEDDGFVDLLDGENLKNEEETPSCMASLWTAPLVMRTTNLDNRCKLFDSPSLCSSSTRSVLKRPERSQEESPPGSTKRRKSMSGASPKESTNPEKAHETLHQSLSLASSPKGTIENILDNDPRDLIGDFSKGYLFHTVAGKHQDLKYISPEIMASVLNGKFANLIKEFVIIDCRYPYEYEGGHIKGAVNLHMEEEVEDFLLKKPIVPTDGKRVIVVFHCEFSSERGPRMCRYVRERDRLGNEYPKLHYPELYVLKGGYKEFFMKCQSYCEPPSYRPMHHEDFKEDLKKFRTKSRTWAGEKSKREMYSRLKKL

[2] = biological target: T1, M-phase inducer phosphatase 1 (Homo sapiens); experiment: Inhibition of human recombinant full length GST-tagged CDC25A transfected in Escherichia coli BL21-DE3 using 3-O-methylfluorescein phosphate as substrate at 10 uM incubated for 20 mins followed by substrate addition measured every 10 mins for 2 hrs by fluorimetric assay in presence of 0.1% BSA
[3] = biological target: T1, M-phase inducer phosphatase 1 (Homo sapiens); experiment: Inhibition of human recombinant full length GST-tagged CDC25A transfected in Escherichia coli BL21-DE3 using 3-O-methylfluorescein phosphate as substrate at 10 uM incubated for 20 mins followed by substrate addition measured every 10 mins for 2 hrs by fluorimetric assay
[4] = biological target: T1, M-phase inducer phosphatase 1 (Homo sapiens); experiment: as §1, with “0.01%” for “0.05%”
[5] = biological target: T2, M-phase inducer phosphatase 3 (Homo sapiens) (UniProt P30307); experiment: Inhibition of human recombinant full length GST-tagged CDC25C transfected in Escherichia coli BL21-DE3 using 3-O-methylfluorescein phosphate as substrate at 10 uM incubated for 20 mins followed by substrate addition measured every 10 mins for 2 hrs by fluorimetric assay
T2 sequence (whole entry): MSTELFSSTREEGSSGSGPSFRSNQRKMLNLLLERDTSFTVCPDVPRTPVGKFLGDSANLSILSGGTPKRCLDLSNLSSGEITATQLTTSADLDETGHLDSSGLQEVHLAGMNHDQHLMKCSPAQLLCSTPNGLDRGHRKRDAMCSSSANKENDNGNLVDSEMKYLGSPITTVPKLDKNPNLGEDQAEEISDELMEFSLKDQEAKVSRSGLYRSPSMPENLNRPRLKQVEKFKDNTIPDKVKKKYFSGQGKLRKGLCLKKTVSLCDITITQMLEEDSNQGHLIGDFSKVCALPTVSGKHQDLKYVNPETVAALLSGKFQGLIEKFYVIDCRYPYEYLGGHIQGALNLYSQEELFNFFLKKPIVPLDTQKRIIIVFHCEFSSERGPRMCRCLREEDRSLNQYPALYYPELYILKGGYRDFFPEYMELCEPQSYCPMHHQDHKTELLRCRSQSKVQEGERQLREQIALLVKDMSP

[6] = biological target: T1, M-phase inducer phosphatase 1 (Homo sapiens); experiment: as §1, with “0.025%” for “0.05%”
[7] = biological target: T1, M-phase inducer phosphatase 1 (Homo sapiens); experiment: as §1, with “0.5%” for “0.05%”
[8] = biological target: T1, M-phase inducer phosphatase 1 (Homo sapiens); experiment: as §1, with “0.1%” for “0.05%”
[9] = biological target: T3, M-phase inducer phosphatase 2 (Homo sapiens) (UniProt P30305); experiment: Inhibition of human recombinant GST-tagged CDC25B catalytic domain transfected in Escherichia coli BL21-DE3 using 3-O-methylfluorescein phosphate as substrate at 10 uM incubated for 20 mins followed by substrate addition measured every 10 mins for 2 hrs by fluorimetric assay
T3 sequence (whole entry): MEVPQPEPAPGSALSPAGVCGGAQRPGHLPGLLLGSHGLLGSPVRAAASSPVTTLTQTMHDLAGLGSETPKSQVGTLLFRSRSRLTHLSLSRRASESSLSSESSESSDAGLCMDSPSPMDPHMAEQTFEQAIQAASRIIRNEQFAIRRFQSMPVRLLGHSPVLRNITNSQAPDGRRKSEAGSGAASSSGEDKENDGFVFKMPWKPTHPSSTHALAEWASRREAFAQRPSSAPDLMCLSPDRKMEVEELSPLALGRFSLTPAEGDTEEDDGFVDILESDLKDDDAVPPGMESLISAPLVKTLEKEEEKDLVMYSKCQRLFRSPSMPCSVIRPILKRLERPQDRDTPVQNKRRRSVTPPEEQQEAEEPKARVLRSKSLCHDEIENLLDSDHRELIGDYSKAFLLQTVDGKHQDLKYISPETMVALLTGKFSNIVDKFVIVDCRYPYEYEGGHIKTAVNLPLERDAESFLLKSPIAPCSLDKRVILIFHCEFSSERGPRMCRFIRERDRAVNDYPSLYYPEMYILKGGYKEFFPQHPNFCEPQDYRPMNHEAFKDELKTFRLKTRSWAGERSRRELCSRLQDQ

MCF7 [10] = experiment: Cytotoxicity against human MCF7 cells assessed as inhibition of cell growth after 72 hrs by MTT assay; format: functional, cell-based; conditions: MCF7, 72 h
HT-29 = experiment: Cytotoxicity against human HT-29 cells assessed as inhibition of cell growth after 72 hrs by MTT assay; format: functional, cell-based; conditions: HT-29, 72 h
MDA-MB-231 [11] = experiment: Cytotoxicity against human MDA-MB-231 cells assessed as cell growth at IC50 concentration after 72 hrs by trypan blue assay; format: functional
MDA-MB-231 [12] = experiment: Cytotoxicity against human MDA-MB-231 cells assessed as inhibition of cell growth after 72 hrs by MTT assay; format: functional, cell-based; conditions: MDA-MB-231, 72 h
[13] = biological target: T4, M-phase inducer phosphatase 1 (Homo sapiens, UniProt P30304); experiment: Inhibition of human recombinant full length GST-tagged CDC25A transfected in Escherichia coli BL21-DE3 using 3-O-methylfluorescein phosphate as substrate incubated for 20 mins followed by substrate addition measured every 10 mins for 2 hrs by fluorimetric assay
T4 sequence (P30304 whole entry): T1 sequence (whole entry)

MCF7 [14] = experiment: Cytotoxicity against human MCF7 cells assessed as cell growth at IC50 concentration after 72 hrs by trypan blue assay; format: functional
[15] = biological target: T1, M-phase inducer phosphatase 1 (Homo sapiens); experiment: Reversible binding affinity to human recombinant full length GST-tagged CDC25A transfected in Escherichia coli BL21-DE3 after 1 hr by MALDI-TOF mass spectrometry
MCF7 [16] = experiment: Cytotoxicity against human MCF7 cells assessed as inhibition of cell growth at IC50 concentration after 72 hrs by trypan blue assay; format: functional
MDA-MB-231 [17] = experiment: Cytotoxicity against human MDA-MB-231 cells assessed as inhibition of cell growth at IC50 concentration after 72 hrs by trypan blue assay; format: functional
[18] = Cytotoxicity against human HCT116 cells assessed as inhibition of cell growth after 72 hrs by MTT assay; format: functional, cell-based; conditions: HCT-116, 72 h

O=C1C=CC(=O)c2ccccc21
inhibition [1]: 26.5% | inhibition [2]: 20.3% | inhibition [3]: 79.7% | inhibition [4]: 20.6% | inhibition [5]: 99.2% | inhibition [6]: 18.6% | inhibition [7]: 26.3% | inhibition [8]: 24.7% | inhibition [9]: 71.2%

O=C1N/C(=N/c2nc3cc(-c4ccc(Cl)cc4)sc3s2)S/C1=C/c1ccc2ccccc2c1
pIC50 (MCF7 [10]): 4.82 | pIC50 (HT-29): < 4.30 | inhibition [3]: 67% | inhibition [5]: 22.6% | Activity (MDA-MB-231 [11]): >80% | pIC50 (MDA-MB-231 [12]): < 4.30 | pIC50 [13]: 5.14 | Activity (MCF7 [14]): >80% | inhibition [9]: 27.3% | Activity [15]: Active

O=C1N/C(=N/c2nc3cc(-c4ccc(Cl)cc4)sc3s2)S/C1=C/c1ccc(F)cc1
pIC50 (MCF7 [10]): 4.68 | pIC50 (HT-29): < 4.30 | inhibition [3]: 65.6% | inhibition [5]: 15.5% | pIC50 (MDA-MB-231 [12]): 4.61 | growth inhibition (GI) (MCF7 [16]): 60% | pIC50 [13]: 5.11 | inhibition [9]: 35.4% | growth inhibition (GI) (MDA-MB-231 [17]): 30% | Activity [15]: Active

O=C1N/C(=N/c2nc3cc(-c4ccc(Cl)cc4)sc3s2)S/C1=C/c1ccc(Cl)cc1
pIC50 (MCF7 [10]): < 4.30 | pIC50 (HT-29): < 4.30

CN(C)c1ccc(/C=C2/S/C(=N\c3nc4cc(-c5ccc(Cl)cc5)sc4s3)NC2=O)cc1
pIC50 (MCF7 [10]): < 4.30 | pIC50 (HT-29): < 4.30

O=C1CS/C(=N\c2nc3cc(-c4ccc(Cl)cc4)[se]c3s2)N1
pIC50 (MCF7 [10]): 4.66 | pIC50 (HT-29): 4.37 | inhibition [3]: 4.2% | pIC50 [18]: 4.36 | inhibition [5]: 15.6% | pIC50 (MDA-MB-231 [12]): 4.45 | inhibition [9]: 17.4%

O=C1CS/C(=N\c2nc3cc(-c4ccc(Cl)cc4)sc3s2)N1
pIC50 (MCF7 [10]): 4.91 | pIC50 (HT-29): 4.87 | inhibition [3]: 6.8% | pIC50 [18]: 4.84 | inhibition [5]: 16.4% | pIC50 (MDA-MB-231 [12]): 4.73 | inhibition [9]: 21.6%

Cc1ccc(/C=C2/S/C(=N\c3nc4cc(-c5ccc(Cl)cc5)sc4s3)NC2=O)cc1
pIC50 (MCF7 [10]): 5.48 | pIC50 (HT-29): 4.34 | inhibition [3]: 68.1% | inhibition [5]: 23.3% | pIC50 (MDA-MB-231 [12]): 4.64 | growth inhibition (GI) (MCF7 [16]): inactive | pIC50 [13]: 5.08 | inhibition [9]: 24.2% | growth inhibition (GI) (MDA-MB-231 [17]): 70% | Activity [15]: Active

O=C1N/C(=N/c2nc3cc(-c4ccc(Br)cc4)sc3s2)S/C1=C/c1ccc(Cl)cc1
pIC50 (MCF7 [10]): 4.96 | pIC50 (HT-29): 4.82 | inhibition [3]: 28.4% | pIC50 [18]: 4.81 | inhibition [5]: 6.1% | pIC50 (MDA-MB-231 [12]): 4.65 | growth inhibition (GI) (MCF7 [16]): 25% | inhibition [9]: 3.8% | growth inhibition (GI) (MDA-MB-231 [17]): 35%
